Assay results: patent US20050209157A1, “Short bioactive peptides and methods for their use” (priority 2001, published 2005)
In brackets after ≈: the same amount, converted by molar mass. Read-outs that look alike come from different tables or passages of the source. No end group written: not given here.

Key:
in vitro [1] = assay type: cell-based, human; settings: human, human red blood cells
Procedure: This hemolytic assay is based upon that presented in Journal of Peptide Research 53: 82-90 (1999). […] All procedures were performed according to safety protocols pertaining to the handling and disposal of human body fluids.
Red blood cells (RBCs) were washed three times with PBS (35 mM phosphate buffer 0.15 M NaCl, pH 7.0). RBCs suspended in PBS (0.4% (v/v); about 10 ml per 15 peptides) were prepared. Suspensions (100 μl) were aliquoted to each sample and control tube. Serially diluted peptide solutions (100 μl) were pipetted into the sample tubes. Negative control tubes contained 100 μl PBS; positive control tubes contained 100 μl 1% Triton-X100 detergent. All tubes were incubated for 1 hour at 37° C. The tubes were removed from the incubator and centrifuged at 1000 g for 5 minutes. Supernatant (100 μl) was pipetted to a 96-well polyvinyl chloride plate. The absorbance at 414 nm (A414) was measured, and used to calculate the percent hemolysis according to the following formula. [formula]

in vitro [2] = settings: human, WI38 normal lung fibroblast cells
H1299 = assay: Anti-cancer assay, MTT, LD50; assay type: cell-based; settings: 24 hours with peptide, lung large cell carcinoma
Source text: (§1) Numbers are LD50 values (μg/mL).

HeLaS3 = assay: Anti-cancer assay, MTT, LD50; assay type: cell-based; settings: 24 hours with peptide, cervical carcinoma
Source text: as §1

PC3 = assay: Anti-cancer assay, MTT, LD50; assay type: cell-based; settings: 24 hours with peptide, prostate adenocarcinoma
Source text: as §1

MCF7 = assay: Anti-cancer assay, MTT, LD50; assay type: cell-based; settings: MCF7 breast adenocarcinoma line, MTT, 24 hours with peptide
Source text: as §1

BMKC = assay: Anti-cancer assay, MTT, LD50; assay type: cell-based; settings: BMKC cloned melanoma line, 24 hours with peptide
Source text: as §1

SW480 = assay: Anti-cancer assay, MTT, LD50; assay type: cell-based; settings: SW480 colon adenocarcinoma line, 24 hours with peptide
Source text: as §1

WI38 = settings: MTT, 24 hours with peptide; for WI38 LD50: normal fibroblast line
[3] = pH 7, Table 26, valine substitution, read-out: Hemolysis RBC LD50
[4] = WI-38 LD50, Table 26, valine substitution
[5] = pH 7, hemolytic assay, concentration at 50% hemolysis, 1 hour at 37° C., read-out: LD50
[6] = LD50 WI38, WI38 normal lung fibroblast line, MTT, 24 hours with peptide

## VALALKALKKL-NH2 [compound 180]
In vitro [1]; [3]
  HC50 at 1 h: 850 µg/mL
In vitro [2]; [4]
  CC50 at 24 h: 1000 µg/mL

## FALLKALLKKAL-NH2 [Flak 961]
In vitro [2]; WI38 LD50, MTT, 24 hours with peptide, normal fibroblast line
  CC50 at 24 h: 270 µg/mL
H1299
  H1299 LD50: 240 µg/mL
HeLaS3
  HeLaS3 LD50: 380 µg/mL
PC3
  PC3 LD50: 120 µg/mL

## VAKKFAKKFKKFAKKFAKFAFAF-NH2 [P503]
In vitro [1]; [5]
  HC50 at 1 h: 20 µg/mL
In vitro [2]; [6]
  CC50 at 24 h: 150 µg/mL
MCF7
  LD50 MCF7: 210 µg/mL

## VAKKFAKKFKKFAKKFAKFAFAF-NH2 [compound 503]
In vitro [1]; [3]
  HC50 at 1 h: 20 µg/mL
In vitro [2]; [4]
  CC50 at 24 h: 150 µg/mL

## VAKFLAKFLKKAL-NH2 [FLAK50 Q1V]
In vitro [2]; [6]
  CC50 at 24 h: 64 µg/mL
MCF7
  LD50 MCF7: 92 µg/mL

## VALALKALKKLAKKLKKLAKKAL-NH2 [compound 509]
In vitro [1]; [3]
  HC50 at 1 h: 40 µg/mL
In vitro [2]; [4]
  CC50 at 24 h: 95 µg/mL

## FAKKLAKKLKKLAKKLAK-NH2 [Shiva 10(1-18)AM]
In vitro [2]; [6]
  CC50 at 24 h: 101 µg/mL
BMKC
  LD50 BMKC: 66 µg/mL
SW480
  LD50 SW480: 63 µg/mL
MCF7
  LD50 MCF7: 45 µg/mL

## CC(C)C[C@H](NC(=O)[C@H](C)NC(=O)[C@H](CC(C)C)NC(=O)[C@H](C)NC(=O)[C@H](CC(C)C)NC(=O)[C@H](CCCCN)NC(=O)[C@H](C)NC(=O)[C@H](CC(C)C)NC(=O)[C@H](CCCCN)NC(=O)[C@H](CCCCN)NC(=O)[C@H](C)NC(=O)[C@H](CC(C)C)NC(=O)[C@H](CCCCN)NC(=O)[C@H](C)NC(=O)[C@H](CC(C)C)NC(=O)[C@H](CCCCN)NC(=O)[C@H](CCCCN)NC(=O)[C@H](C)NC(=O)[C@@H](N)Cc1ccccc1)C(N)=O [P36]
In vitro [1]; [5]
  HC50 at 1 h: 85 µg/mL
In vitro [2]; [6]
  CC50 at 24 h: 19 µg/mL (≈ 9.32 µM)
WI38
  WI38 LD50: 19 µg/mL
BMKC
  LD50 BMKC: 56 µg/mL
H1299
  H1299 LD50: 57 µg/mL
SW480
  LD50 SW480: 30 µg/mL
MCF7
  LD50 MCF7: 9 µg/mL
PC3
  PC3 LD50: 19 µg/mL

## VALALKALKKLLKKLKKLAKKAL-NH2 [03 AMV]
In vitro [2]; [6]
  CC50 at 24 h: 77 µg/mL
MCF7
  LD50 MCF7: 62 µg/mL

## VALALKALKKALKKLKKALKKAL-OH [HECATE AC V]
In vitro [2]; [6]
  CC50 at 24 h: 190 µg/mL
MCF7
  LD50 MCF7: 160 µg/mL

## VAKFLAKFLKKAL-NH2 [P502, VAKFLAKFLKKAL-NH2]
In vitro [1]; [5]
  HC50 at 1 h: 100 µg/mL

## VALALKALKKALKKLKKALKKAL-NH2 [P30]
WI38
  WI38 LD50: 93 µg/mL

## CC(C)C[C@H](NC(=O)[C@H](C)NC(=O)[C@H](CC(C)C)NC(=O)[C@H](C)NC(=O)[C@H](CC(C)C)NC(=O)[C@H](CCCCN)NC(=O)[C@H](C)NC(=O)[C@H](CC(C)C)NC(=O)[C@H](CCCCN)NC(=O)[C@H](CCCCN)NC(=O)[C@H](C)NC(=O)[C@H](CC(C)C)NC(=O)[C@H](CCCCN)NC(=O)[C@H](C)NC(=O)[C@H](CC(C)C)NC(=O)[C@H](CCCCN)NC(=O)[C@H](CCCCN)NC(=O)[C@H](C)NC(=O)[C@@H](N)C(C)C)C(N)=O [compound 504]
In vitro [1]; [3]
  HC50 at 1 h: 70 µg/mL
In vitro [2]; [4]
  CC50 at 24 h: 110 µg/mL (≈ 55.3 µM)

## VALALKALKKALKKLKKALKKAL-OH [compound 508]
In vitro [1]; [3]
  HC50 at 1 h: 70 µg/mL
In vitro [2]; [4]
  CC50 at 24 h: 190 µg/mL

## VAKKLAKLAKKLLAL-NH2 [compound 505]
In vitro [1]; [3]
  HC50 at 1 h: 620 µg/mL
In vitro [2]; [4]
  CC50 at 24 h: 85 µg/mL

## FALALKALKKA-NH2 [Flak 96H]
WI38
  WI38 LD50: > (> indicates greater than 1000)
WI38; WI38 normal lung fibroblast line
  LD50 WI38: > (> indicates greater than 1000)
BMKC
  LD50 BMKC: > (> indicates greater than 1000)
H1299
  H1299 LD50: > (> indicates greater than 1000)
HeLaS3
  HeLaS3 LD50: > (> indicates greater than 1000)
SW480
  LD50 SW480: > (> indicates greater than 1000)
MCF7
  LD50 MCF7: > (> indicates greater than 1000)
PC3
  PC3 LD50: > (> indicates greater than 1000)

## VAKKLAKLAKKLLAL-NH2 [P505, VAKKLAKLAKKLLAL-NH2]
In vitro [1]; [5]
  HC50 at 1 h: 620 µg/mL

## KLAKKLAKLAKLAKAL-NH2 [P159, reference compound]
In vitro [2]; [6]
  CC50 at 24 h: 82 µg/mL
WI38
  WI38 LD50: 82 µg/mL
BMKC
  LD50 BMKC: 140 µg/mL
H1299
  H1299 LD50: 74 µg/mL
HeLaS3
  HeLaS3 LD50: 275 µg/mL
SW480
  LD50 SW480: 140 µg/mL
MCF7
  LD50 MCF7: 61 µg/mL
PC3
  PC3 LD50: 145 µg/mL

## MPKWKVFKKIEKVGRNIRNGIVKAGPAIAVLGEAKALG-OH [SB37COOH]
In vitro [2]; [6]
  CC50 at 24 h: 130 µg/mL
WI38
  WI38 LD50: 130 µg/mL
BMKC
  LD50 BMKC: 120 µg/mL
H1299
  H1299 LD50: 220 µg/mL
HeLaS3
  HeLaS3 LD50: 150 µg/mL
SW480
  LD50 SW480: 82 µg/mL
MCF7
  LD50 MCF7: 175 µg/mL

## VAKALKALLKALKAL-NH2 [FLAK 17 CV]
In vitro [2]; [6]
  CC50 at 24 h: 26 µg/mL
MCF7
  LD50 MCF7: 23 µg/mL

## VAKLLAKALKKLL-NH2 [P506]
In vitro [1]; [5]
  HC50 at 1 h: 120 µg/mL

## VAKKLAKLAKKLLAL-NH2 [FLAK43 AM V]
In vitro [2]; [6]
  CC50 at 24 h: 85 µg/mL
MCF7
  LD50 MCF7: 86 µg/mL

## VAKALKALLKALKAL-NH2 [P501, VAKALKALLKALKAL-NH2]
In vitro [1]; [5]
  HC50 at 1 h: 15 µg/mL

## FAKKLAKKLKKLAKKLIGAVLKV-OH [SHIVA 11 [(1-16)ME(2-9]-COOH]
In vitro [2]; [6]
  CC50 at 24 h: 34 µg/mL
WI38
  WI38 LD50: 34 µg/mL
BMKC
  LD50 BMKC: 94 µg/mL
H1299
  H1299 LD50: 54 µg/mL
HeLaS3
  HeLaS3 LD50: 180 µg/mL
SW480
  LD50 SW480: 120 µg/mL
MCF7
  LD50 MCF7: 95 µg/mL
PC3
  PC3 LD50: 28 µg/mL

## VAKFLAKFLKKAL-NH2 [compound 502]
In vitro [1]; [3]
  HC50 at 1 h: 100 µg/mL
In vitro [2]; [4]
  CC50 at 24 h: 64 µg/mL

## VAKLLAKALKKLL-NH2 [FLAK50D V]
In vitro [2]; [6]
  CC50 at 24 h: 75 µg/mL
MCF7
  LD50 MCF7: 45 µg/mL

## VALALKALKKLAKKLKKLAKKAL-NH2 [FLAK04 AM V]
In vitro [2]; [6]
  CC50 at 24 h: 95 µg/mL
MCF7
  LD50 MCF7: 84 µg/mL

## CC[C@H](C)[C@H](NC(=O)CN)C(=O)NCC(=O)N[C@@H](C)C(=O)N[C@H](C(=O)N[C@@H](CC(C)C)C(=O)N[C@@H](CCCCN)C(=O)N[C@H](C(=O)N[C@@H](CC(C)C)C(=O)N[C@H](C(=O)N[C@H](C(=O)NCC(=O)N[C@@H](CC(C)C)C(=O)N1CCC[C@H]1C(=O)N[C@@H](C)C(=O)N[C@@H](CC(C)C)C(=O)N[C@H](C(=O)N[C@@H](CO)C(=O)N[C@@H](Cc1c[nH]c2ccccc12)C(=O)N[C@H](C(=O)N[C@@H](CCCCN)C(=O)N[C@@H](CCCNC(=N)N)C(=O)N[C@@H](CCCCN)C(=O)N[C@@H](CCCNC(=N)N)C(=O)N[C@@H](CCC(N)=O)C(=O)N[C@@H](CCC(N)=O)C(N)=O)[C@@H](C)CC)[C@@H](C)CC)[C@@H](C)O)[C@@H](C)O)C(C)C)C(C)C [MELITTIIN]
In vitro [2]; [6]
  CC50 at 24 h: 16 µg/mL (≈ 5.62 µM)
WI38
  WI38 LD50: 16 µg/mL
BMKC
  LD50 BMKC: 18 µg/mL
H1299
  H1299 LD50: 25 µg/mL
HeLaS3
  HeLaS3 LD50: 35 µg/mL
SW480
  LD50 SW480: 23 µg/mL
MCF7
  LD50 MCF7: 9 µg/mL
PC3
  PC3 LD50: 13 µg/mL

## FAKKFAKKFKKFAKKFAKFAFAF-NH2 [compound 301]
In vitro [1]; [3]
  HC50 at 1 h: 10 µg/mL

## CC(C)C[C@H](NC(=O)[C@H](C)NC(=O)[C@H](CC(C)C)NC(=O)[C@H](C)NC(=O)[C@H](CC(C)C)NC(=O)[C@H](CCCCN)NC(=O)[C@H](C)NC(=O)[C@H](CC(C)C)NC(=O)[C@H](CCCCN)NC(=O)[C@H](CCCCN)NC(=O)[C@H](C)NC(=O)[C@H](CC(C)C)NC(=O)[C@H](CCCCN)NC(=O)[C@H](C)NC(=O)[C@H](CC(C)C)NC(=O)[C@H](CCCCN)NC(=O)[C@H](CCCCN)NC(=O)[C@H](C)NC(=O)[C@@H](N)C(C)C)C(N)=O [FLAK 25 AM V]
In vitro [2]; [6]
  CC50 at 24 h: 110 µg/mL (≈ 55.3 µM)
MCF7
  LD50 MCF7: 130 µg/mL

## GIGKFLHSAKKFGKAFVGGIMNS-NH2 [P16, reference compound]
In vitro [1]; [5]
  HC50 at 1 h: 550 µg/mL
